{"source": "patent US11059823B2", "about": "“Small molecule inhibitors of the JAK family of kinases” (Janssen Pharmaceutica NV, priority 2016, dated 2021)", "key": {"physchem": {"test": "physchem", "conditions": "thermodynamic from solid"}, "JAK1-JH1JH2": {"biological_target": "JAK1-JH1JH2 (Homo sapiens (Human), UniProt P23458)", "sequence (P23458 574-1154)": "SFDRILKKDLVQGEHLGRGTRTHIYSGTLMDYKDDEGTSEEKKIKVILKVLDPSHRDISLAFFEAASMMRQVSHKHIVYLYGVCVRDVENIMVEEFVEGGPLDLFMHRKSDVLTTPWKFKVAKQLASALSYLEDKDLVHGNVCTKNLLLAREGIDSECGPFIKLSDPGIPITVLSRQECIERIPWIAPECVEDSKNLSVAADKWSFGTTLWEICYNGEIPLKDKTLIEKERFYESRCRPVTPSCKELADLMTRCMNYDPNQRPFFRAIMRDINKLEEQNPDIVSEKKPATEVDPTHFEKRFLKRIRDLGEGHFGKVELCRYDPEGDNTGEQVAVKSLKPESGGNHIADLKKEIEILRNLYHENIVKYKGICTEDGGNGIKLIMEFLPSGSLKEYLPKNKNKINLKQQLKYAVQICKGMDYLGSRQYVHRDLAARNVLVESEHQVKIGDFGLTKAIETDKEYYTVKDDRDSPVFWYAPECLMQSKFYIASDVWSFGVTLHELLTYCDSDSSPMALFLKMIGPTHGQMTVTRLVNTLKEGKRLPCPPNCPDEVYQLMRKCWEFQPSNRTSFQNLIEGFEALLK", "test": "Enzymatic inhibition assay (HTMS), JAK1", "assay_type": "biochemical", "conditions": "12.5 μM ATP; read-out: JAK1_JH1JH2 IC50", "description": "JAK1-JH1JH2 (574-1154 with a His-GST Tag and a C-terminal tev (ENLYFQ-G) cleavage site), JAK3-JH1JH2 (512-1124 with a GST Tag and a C-terminal tev (ENLYFQ-G) cleavage site), and Tyk2-JH1JH2 (8H_tev_580-1182-C936A-C1142A with a C-terminal tev (ENLYFQ-G) cleavage site) were purified internally. […] LC/MS grade water and acetonitrile (ACN), were purchased from HoneyWell, Burdick & Jackson (Muskegon, Mich., USA). Dimethylsulfoxide 99.8% (DMSO) and trifluoroacetic acid 99.5% (TFA) were purchased from EMD Chemical (Gibbstown, N.J., USA). Adenosine triphosphate (ATP), 4-morpholinepropanesulfonic acid (MOPS), magnesium chloride (MgCl2), ethylenediaminetetraacetic acid (EDTA), dithiothreitol (DTT), formic acid >95% (FA) and Tween-20 were purchased from Sigma (St Louis, Mo., USA). 384-well polypropylene plates, Cat#781280 were purchased from Greiner (Monroe, N.C.), RapidFire™ cartridge A C4 Column (Agilent Technologies, Santa Clara, Calif.). […]\n11-point dosing series were made for each compound by serially diluting 1:3 or 1:4 in DMSO, with point 12 being a DMSO control. […] Compound inhibition was assessed by a decrease of the phosphorylated product levels in sample wells compared to the non-inhibited enzyme reaction. […]"}, "IL-2 pSTAT5 (JAK1/JAK3)": {"test_system": "IL-2 pSTAT5 (JAK1/JAK3)", "test": "IL-2 pSTAT5 (JAK1/JAK3) cellular assay in PBMCs (AlphaLISA)", "assay_type": "cell-based", "conditions": "PBMC, IL-2 5 ng/mL", "protocol": "For all compounds tested, there was measured inhibition of STAT phosphorylation with all three stimuli.\nThe AlphaLISA assay (based on Alpha Technology from PerkinElmer) was performed by first plating freshly thawed PBMCs (Biological Specialty Corporation) in 384-well plates at 30,000 cells per 4 μL per well in HBSS (Hanks' Balanced Salt Solution) containing 0.1% IgG (immunoglobulin G)-free, protease-free BSA (bovine serum albumin) (Jackson ImmunoResearch Cat. No. 001-000-161). The cells were then treated with 2 μL/well of compounds diluted in DMSO at half-log titrated concentrations, with a highest test concentration of 10 μM and 0.5% final DMSO concentration, for thirty minutes at 37° C. […] The cellular reactions were terminated by the addition of 2 μL/well of lysis buffer (PerkinElmer Cat. No. ALSU-PST5-A10K) followed by an incubation of five minutes at room temperature. […] Finally, the plates were read on a PerkinElmer EnVision for detection of the time-resolved fluorescence signal. The percentage of IL-2-dependent pSTAT5 inhibition was determined at the compound test concentrations; and for each compound, a dose curve was generated and the IC50 was calculated. Compound IC50 was calculated by nonlinear regression, sigmoidal dose response analysis of the half-log dilution titration curve of the compound concentration vs. Alpha signal. […]"}}}
{"compound": "N#CC[C@H]1CC[C@H](n2c(-c3c[nH]cn3)nc3cnc4[nH]ccc4c32)CC1", "note": "[Ex. 2, 2-((1r,4r)-4-(2-(1H-Imidazol-4-yl)imidazo[4,5-d]pyrrolo[2,3-b]pyridin-1(6H)-yl)cyclohexyl)acetonitrile]", "values": [{"measurement": "solubility", "setting": "physchem; pH 6.5, fassif", "result": "> 400", "unit": "µM"}, {"measurement": "solubility", "setting": "physchem; simulated gastric fluid", "result": "> 400", "unit": "µM"}, {"measurement": "IC50", "setting": "JAK1-JH1JH2", "result": 0.2, "unit": "nM"}, {"measurement": "IC50", "setting": "IL-2 pSTAT5 (JAK1/JAK3)", "result": 9, "unit": "nM"}]}
